Here are results for 23 compounds from PubChem BioAssay (NCI).

Structures are written as SMILES.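 Test compounds were applied to cells in 96-well plates for 48 hours at 5 doses. GI50 = concentration required for 50% inhibition of growth. The concentration for full growth arrest is given as TGI.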

In the first test the test system is HOP-92 NSCLC. In words: NCI-60 cell line screen, 48 h.
Compound `COc1cccc(/C=C2\CCC(C)(CN(C)C)C2=O)c1` (stereo not given) displayed a TGI above 100 µM.
Consider `CCN(CC)CCNC(=O)c1cn2ncnc(Oc3ccc(NC(=O)Nc4ccc(Cl)c(C(F)(F)F)c4)c(F)c3)c2c1C`, for which the GI50 is 1.6 µM and the TGI stood at 3.56 µM.
Consider `C=CCC1[C@@H](C(C)(C)C(C(C)=O)C(=O)C(=O)OC)OC(C(C)(C)C)N1C(=O)OC` (stereo not given in full), for which the TGI was above 100 µM.
On the same count and under the same terms, the same measure for `CCOC(=O)C(=O)Nc1ccccc1C(F)(F)F`: above 100 µM; for `CCOC(=O)/C(=C/c1cccc(OC)c1)N(CC)CC`: above 100 µM.
Turning to `Cn1c(/C(C#N)=C/c2ccc3ccccc3c2)cc2ccccc21`, the GI50 was 0.0395 µM and the TGI was above 100 µM.
On the same counts, the results for `c1ccc2nc3c(cc4ccccn43)nc2c1` are 30.9 µM and above 100 µM.
Turning to `C=CCOC(=O)CC[N+]1=CCC(c2ccccc2)(c2ccccc2)O1`, the TGI was above 100 µM.
With `COC(=O)/C(C#N)=C1\CCC(C(=O)OC)N1C` (stereo not given), the TGI was above 100 µM.
Regarding `c1ccc(Cn2cnc3ccc(-c4nc(-c5ccc6c(c5)ncn6C5CCCCC5)cn5ccnc45)cc32)cc1`, the GI50 is 1.25 µM and the TGI stood at 2.62 µM.
For `Cc1cn(C2OC(C)(CO)C(O)C2O)c(=O)[nH]c1=O` (stereo not given), the TGI is above 100 µM.
On to `CCN(CC)CC(=O)N1CCc2c([nH]c3ccccc23)C1c1cccnc1` (stereo not given), for which the TGI is above 100 µM.
For `CCSc1nc(N)c2cn[nH]c2n1`, the GI50 was 1.37 µM and the TGI was determined as 93.3 µM.
For `C[C@H]1[C@H](C)CC[C@]2(C(=O)NCCNCCN)CC[C@]3(C)C(=CC[C@@H]4[C@@]5(C)CCC(=O)C(C)(C)[C@@H]5CC[C@]43C)[C@H]12`, in that order: 1.73 µM and 4.82 µM.

The test system of a further test is UACC-257 melanoma. In words: NCI-60 cell line screen, 48 h.
On to `COc1cccc(/C=C2\CCC(C)(CN(C)C)C2=O)c1` (stereo not given), for which the TGI is above 100 µM.
Take `CCN(CC)CCNC(=O)c1cn2ncnc(Oc3ccc(NC(=O)Nc4ccc(Cl)c(C(F)(F)F)c4)c(F)c3)c2c1C`: the GI50 was 1.61 µM and the TGI is 3.18 µM.
The compound `Cc1cc2c(Br)cc(Br)c(O)c2nc1C(=O)c1ccccc1` showed a TGI above 65.7 µM.
Consider `Cn1cc(-c2csc(-c3cn(C)c4ccccc34)n2)c2cnccc21`, for which the GI50 is 1.94 µM and the TGI was 3.5 µM.
`C=CCC1[C@@H](C(C)(C)C(C(C)=O)C(=O)C(=O)OC)OC(C(C)(C)C)N1C(=O)OC` (stereo not given in full): the TGI is above 100 µM.
Regarding `CCOC(=O)C(=O)Nc1ccccc1C(F)(F)F`, the TGI is above 100 µM.
In turn, `CCOC(=O)/C(=C/c1cccc(OC)c1)N(CC)CC` displayed a TGI above 100 µM.
With `Cn1c(/C(C#N)=C/c2ccc3ccccc3c2)cc2ccccc21`, the GI50 is above 100 µM and the TGI is above 100 µM.
`c1ccc2nc3c(cc4ccccn43)nc2c1`: the GI50 is above 100 µM and the TGI is above 100 µM.
Compound `C=CCOC(=O)CC[N+]1=CCC(c2ccccc2)(c2ccccc2)O1` had a TGI above 100 µM.
In turn, `COC(=O)/C(C#N)=C1\CCC(C(=O)OC)N1C` (stereo not given) returned a TGI above 100 µM.
The compound `CSc1c(C)c(C)nn1-c1ccccc1` registered a TGI above 100 µM.
For `COc1cc2cnc3c4ccccc4ccc3c2cc1OC`, the TGI was above 100 µM.
For `Cc1cc(N(CCC#N)CCC#N)ccc1/C=C1N=C(/C=C/c2ccccc2)OC(=O)N\1`, the TGI is above 100 µM.
`CCN(CC)CC(=O)N1CCc2c([nH]c3ccccc23)C1c1cccnc1` (stereo not given) registered a TGI above 100 µM.
In the case of `CCSc1nc(N)c2cn[nH]c2n1`, the GI50 was 71.1 µM and the TGI is above 100 µM.
For the compound `N=S(c1ccccc1)c1ccccc1[N+](=O)[O-]` (stereo not given), the TGI stood at 32.2 µM.
For `O=c1c2c3c(sc2n2c(-c4cc(-c5ccccc5)nn4-c4ccccc4)nnc2n1Cc1ccccc1)CCCC3`, the GI50 was above 100 µM and the TGI is above 100 µM.
Regarding `C[C@H]1[C@H](C)CC[C@]2(C(=O)NCCNCCN)CC[C@]3(C)C(=CC[C@@H]4[C@@]5(C)CCC(=O)C(C)(C)[C@@H]5CC[C@]43C)[C@H]12`, the GI50 was 1.84 µM and the TGI is 3.89 µM.
Consider `COC1OC(C)C(OCc2ccccc2)C(OS(=O)(=O)c2ccc(C)cc2)C1OS(=O)(=O)c1ccc(C)cc1` (stereo not given), for which the TGI was above 100 µM.

The subject of another test is HL-60(TB) leukemia. The test can be described thus: NCI-60 cell line screen, 48 h.
In turn, `Cc1cc2c(Br)cc(Br)c(O)c2nc1C(=O)c1ccccc1` had a TGI of 8.11 µM.
For the compound `Cn1cc(-c2csc(-c3cn(C)c4ccccc34)n2)c2cnccc21`, the GI50 was 1.94 µM and the TGI was 4.09 µM.
Compound `CCOC(=O)/C(=C/c1cccc(OC)c1)N(CC)CC` had a TGI above 100 µM.
As for `Cn1c(/C(C#N)=C/c2ccc3ccccc3c2)cc2ccccc21`, the GI50 is 0.21 µM and the TGI amounted to 0.699 µM.
For `c1ccc2nc3c(cc4ccccn43)nc2c1`, the GI50 was above 100 µM and the TGI was above 100 µM.
In the case of `COC(=O)/C(C#N)=C1\CCC(C(=O)OC)N1C` (stereo not given), the TGI is above 100 µM.
For `c1ccc(Cn2cnc3ccc(-c4nc(-c5ccc6c(c5)ncn6C5CCCCC5)cn5ccnc45)cc32)cc1`, the GI50 was 2.88 µM and the TGI worked out at 6.65 µM.
For `CSc1c(C)c(C)nn1-c1ccccc1`, the TGI was above 100 µM.
Still for that read-out and setting: for `Cc1cc(N(CCC#N)CCC#N)ccc1/C=C1N=C(/C=C/c2ccccc2)OC(=O)N\1` the value was above 100 µM; for `CCN(CC)CC(=O)N1CCc2c([nH]c3ccccc23)C1c1cccnc1` (stereo not given), above 100 µM.
Take `N=S(c1ccccc1)c1ccccc1[N+](=O)[O-]` (stereo not given): the TGI came out at 36.5 µM.
As to `COC1OC(C)C(OCc2ccccc2)C(OS(=O)(=O)c2ccc(C)cc2)C1OS(=O)(=O)c1ccc(C)cc1` (stereo not given), the TGI is above 100 µM.
Turning to `Cn1c2ccccc2c2c(=O)c3ccccc3[nH]c21`, the GI50 is 70.6 µM and the TGI was above 100 µM.
